Measured values from ChEMBL document CHEMBL1201862, “PubChem BioAssay data set” (2004).
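The compound was tested at five concentrations on cells cultured in 96-well plates, with a 48-hour exposure period. Abbreviation: GI50, concentration required for 50% inhibition of growth.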 The source made the active and inactive calls. Rule as the data show it: active = GI50 up to about 1.1 µM and inactive = higher.

How the values were obtained:
Test in all cases: NCI-60 cell line screen, 48 h
[1] = tested on: A498
[2] = tested on: ACHN
[3] = tested on: COLO 205
[4] = tested on: HCT-116
[5] = tested on: HCT-15
[6] = tested on: HL-60
[7] = tested on: M14
[8] = tested on: MDA-MB-231
[9] = tested on: MDA-MB-435
[10] = tested on: MDA-N
[11] = tested on: Malme-3M
[12] = tested on: NCI-H23
[13] = tested on: PC-3
[14] = tested on: SF-539
[15] = tested on: SW-620
[16] = tested on: U-251
[17] = tested on: UACC-257
[18] = tested on: UACC-62
[19] = tested on: SK-OV-3

| Compound | GI50 [1] | GI50 [2] | GI50 [3] | GI50 [4] | GI50 [5] | GI50 [6] | GI50 [7] | GI50 [8] | GI50 [9] | GI50 [10] | GI50 [11] | GI50 [12] | GI50 [13] | GI50 [14] | GI50 [15] | GI50 [16] | GI50 [17] | GI50 [18] | GI50 [19] |
| --- | --- | --- | --- | --- | --- | --- | --- | --- | --- | --- | --- | --- | --- | --- | --- | --- | --- | --- | --- |
| CN1C(=O)c2ccccc2NC(=O)C12O[C@@H]2c1ccccc1 (stereo not given in full) | > 100 µM (inactive) | > 100 µM (inactive) | > 100 µM (inactive) | > 100 µM (inactive) | > 10 µM | > 100 µM (inactive) | > 100 µM (inactive) | 67.6 µM (inactive) | > 100 µM (inactive) | > 100 µM (inactive) | > 100 µM (inactive) | > 100 µM (inactive) | > 100 µM (inactive) | > 100 µM (inactive) | > 100 µM (inactive) | > 100 µM (inactive) | > 100 µM (inactive) | > 100 µM (inactive) |  |
| C=C(Cl)/C(=C\Cl)CCC(Br)C(C)C (stereo not given) | > 100 µM (inactive) | > 100 µM (inactive) | > 100 µM (inactive) | > 100 µM (inactive) |  | 63.5 µM (inactive) | 64.3 µM (inactive) | 24.9 µM (inactive) | 81.5 µM (inactive) | 41 µM (inactive) |  | > 100 µM (inactive) | > 100 µM (inactive) | > 100 µM (inactive) | 19.5 µM (inactive) | > 100 µM (inactive) | 58.5 µM (inactive) | 51.8 µM (inactive) | > 100 µM (inactive) |
| O=C1Nc2ccc(S(=O)(=O)O)cc2/C1=N/Nc1ccccc1[N+](=O)[O-] | 70.1 µM (inactive) | > 100 µM (inactive) | > 100 µM (inactive) | > 100 µM (inactive) | 84.1 µM |  | > 100 µM (inactive) | > 100 µM (inactive) | > 100 µM (inactive) | > 100 µM (inactive) | > 100 µM (inactive) | > 100 µM (inactive) | > 100 µM (inactive) | > 100 µM (inactive) | > 100 µM (inactive) | > 100 µM (inactive) | > 100 µM (inactive) | 35 µM (inactive) | 97.9 µM (inactive) |
| CC1COC(c2cn[nH]c2C(N)=O)C1O (stereo not given) | > 100 µM (inactive) | > 100 µM (inactive) | > 100 µM (inactive) | > 100 µM (inactive) | > 100 µM | > 100 µM (inactive) | > 100 µM (inactive) | > 100 µM (inactive) | > 100 µM (inactive) | > 100 µM (inactive) |  | > 100 µM (inactive) | > 100 µM (inactive) | > 100 µM (inactive) | > 100 µM (inactive) | > 100 µM (inactive) | > 100 µM (inactive) | > 100 µM (inactive) | > 100 µM (inactive) |
| CC(C)(C)n1c(=O)[nH]n(C2NN=Cc3cccc4cccc2c34)c1=O (stereo not given) | 25.5 µM (inactive) |  | 30 µM (inactive) | 38.5 µM (inactive) | 31.3 µM | 12.9 µM (inactive) | 48 µM (inactive) | 21.5 µM (inactive) | 34.3 µM (inactive) | 26.4 µM (inactive) | 36 µM (inactive) | 31.6 µM (inactive) | 31.8 µM (inactive) | 16.9 µM (inactive) | 47.3 µM (inactive) | 44.2 µM (inactive) | 54.3 µM (inactive) | 23.9 µM (inactive) | 50 µM (inactive) |
| CCOC(=O)Nc1nn(C)/c(=N/Cc2ccccc2)s1 | > 100 µM (inactive) | > 100 µM (inactive) | > 100 µM (inactive) | > 100 µM (inactive) | > 100 µM | > 100 µM (inactive) |  | > 100 µM (inactive) | > 100 µM (inactive) | > 100 µM (inactive) |  |  | > 100 µM (inactive) | > 100 µM (inactive) | > 100 µM (inactive) | > 100 µM (inactive) | > 100 µM (inactive) | > 100 µM (inactive) | > 100 µM (inactive) |
